According to patent publication US9670217B2, “Process for preparing chlorins and their pharmaceutical uses” (UNIVERSIDADE DE COIMBRA, priority 2008, dated 2017):

What was measured:
S91 Cloudman melanoma = assay: PDT of implanted S91 tumors; assay type: in vivo, DBA/2 mice
Description: (§1) The mice used in the present study were form two sources. Dark toxicity, biodistribution and farmacokinetic studies employed DBA/2 mice, weighing 20-30 g, from the animal breeding facility at the Faculty of Biochemistry, Biophysics and Biotechnology, Jagiellonian University, Krakow. The mice were kept on a standard laboratory diet with free access to drinking water. The use of such animals for experimental purposes was approved by the Jagiellonian University Committee for Ethics of Experiments on Animals (decision No. 384/99). Such mice were also employed in PDT.
The tumors grew to reach 5 mm in about one week after the implantation. No spontaneous necrosis was observed. The treatment was initiated when the tumor attained 5 mm in diameter in each animal. The day the tumors reached the treatment size, the mice were injected via i.p. with a dose of 10 mg/kg of Luzitin-C12Et in PEG400. At 24 h post-injection, the mice were anesthetized with ketamine and xylazine, and restrained in plastic holders, then treated with different light doses with the Hamamatsu 748 nm diode laser described before. […] The mice were checked daily, and the size of the tumors was measured and recorded.

[1] = In vivo toxicity in the dark; set-up: species or system DBA/2 mice; settings: for sensitivity to light: first 6 days
Description: as §1
The mice were divided into the following experimental groups:
The solutions of Luzitin-Cl (0.5 ml) were injected subcutaneously and for 30 days the animals were closely observed. […] They manifested such sensitivity by moving away from light sources directly pointed at them. […] After 30 days the animals were anaesthetized using Morbital (Biowet, Poland), their organs and tissue samples were excised, and blood morphology as well as histology of selected organs tests was performed.

[2] = test system: SW2 (human small cell lung cancer); assay: Cytotoxicity in the dark, resazurin assay; assay type: cell-based; settings: SW2, incubation 48 h in the dark; read-out: IC50 dark toxicity
Experimental: (§2) The cell lines employed in laser irradiation were the HT-29 (human colon carcinoma), PC-3 (human prostate carcinoma), SW2 (human small cell lung cancer), A-549 (human non-small cell lung cancer). S91/I3 (mouse melanoma) and CT26 (mouse colon carcinoma). They were used both for cytotoxicity and photocytotoxicity experiments. PC-3. SW2 and S91113 cells were cultured in RPMI-1640 medium (Sigma-Aldrich, Steinheim, Germany) and HT-29, A-549 and CT26 cells were cultured in Dulbecco's Modified Eagle Medium (DMEM) (Cambrex Bioscience, Verviers, Belgium). Both cell culture mediums were supplemented with 10% heat-inactivated Fetal Bovine Serum (FBS) (Cambrex Bioscience, Verviers, Belgium) and 100 IU/ml penicillin-100 μg/ml streptomycin (Cambrex Bioscience, Verviers, Belgium). The DMEM medium used for CT26 cells was also supplemented with HEPES 10 mM. Cell lines were maintained in 75 cm^2 flasks (Orange Scientific, Braine-l'Alleud, Belgium) at 37° C. in humidified atmosphere with 5% CO2. For the in vitro studies, cells at 85-90% confluence, were detached with Trypsin-Versene-EDTA solution (Cambrex Bioscience, Verviers, Belgium), counted and seeded in flat-bottom 96-well plates at the desired densities.
(§3) Cell viability assay. In the end of the experiences cell viability was evaluated by the resazurin reduction assay. Briefly, resazurin (Sigma-Aldrich, Steinhelm, Germany) stock solution (0.1 mg/ml in phosphate buffer saline (PBS) pH 7.4) was diluted 10% in culture medium without FBS or antibiotics and 200 μl were added to the cells in each well. Plates were incubated for 3-4 h at 37° C. The absorbance values of each well were measured at 540 nm and 630 nm using a microplate reader Multiskan Ex (Thermo-Electron Corporation, Vartaa, Finland).
(§4) Cytotoxicity. Cells were seeded in flat-bottom 96-well plates (Orange Scientific, Braine-l'Alleud, Belgium) in 100 μl of culture medium and were allowed to adhere overnight. The photosensitizer was added to the cells (diluted in 100 μl culture medium) at final concentrations between 0.01 and 1 mM. Each concentration was tested in quadruplicate. The incubation periods in the dark at 37° C. were two times the doubling time for the tested cell line. After the incubation the cell viability was evaluated. In parallel control experiments, cells were incubated without the drug. Cytotoxicity was quantified by expressing cell death relatively to untreated cells (% of control cells). The results were plotted as dose response curves (% of cell death as a function of the concentration of the DRUG), which allow the determination of the concentration that inhibit 50% of cell growth (IC50).

S91/I3 (mouse melanoma) = assay: Cytotoxicity in the dark, resazurin assay; assay type: cell-based; settings: S91I3, incubation 40 h in the dark; read-out: IC50 dark toxicity
Experimental: as §2, §3, §4

[3] = Bacteriochlorin pharmacokinetics and biodistribution following ip administration, S91 tumor-bearing mice; settings: 10 mg/kg ip
[4] = minipig
[5] = test system: CT26 mouse colon carcinoma; assay: PDT of implanted CT26 tumors; assay type: in vivo, Balb/C mice; settings: 10 mg/kg i.p. in PEG400, 24 h post-injection, 748 nm, 132 J/cm^2
Description: The other mice were Balb/C weighing 20-25 g, from the animal breeding facility of Charles River Laboratories (Barcelona). The mice were kept on a standard laboratory diet with free access to drinking water. The use of such animals for experimental purposes was approved by the Board of Centro de Neurociências e Biologia Celular (Coimbra).
The tumors grew to reach 5 mm in diameter in about one week after the implantation. No spontaneous necrosis was observed. The treatment was initiated when the tumor attained 5 mm in diameter in each animal. The day the tumors reached the treatment size, the mice were injected via i.p. with a dose of 10 mg/kg of Luzitin-FMet in PEG400. At 24 h post-injection, four mice were anesthetized with ketamine and xylazine, and treated with the Hamamatsu 748 nm diode laser described before, at a fluence rate of 100 mW/cm^2 for 22 minutes (total fluence of 132 J/cm^2). Four other mice were not treated and served as control. The mice were checked daily, the tumors were measured using two orthogonal measurements L and W (perpendicular to L) and the volumes were calculated using the formula V=L×W^2/2 and recorded.

[6] = test system: HT-29 (human colon carcinoma); assay: Cytotoxicity in the dark, resazurin assay; assay type: cell-based; settings: HT-29, dark
Experimental: as §2, §3, §4

Compound: CCNS(=O)(=O)c1ccc(Cl)c(-c2c3nc(c(-c4c(Cl)ccc(S(=O)(=O)NCC)c4Cl)c4ccc([nH]4)c(-c4c(Cl)ccc(S(=O)(=O)NCC)c4Cl)c4nc(c(-c5c(Cl)ccc(S(=O)(=O)NCC)c5Cl)c5ccc2[nH]5)CC4)CC3)c1Cl [Luzitin-Cl2Et, 5,10,15,20-tetrakis(2,6-dichloro-3-N-ethylsulfamoylphenyl)bacteriochlorin]
- tumor response after PDT (S91 Cloudman melanoma; 10 mg/kg i.p. in PEG400, 24 h post-injection, 748 nm laser, single session): long-lasting tumor regression
- necrosis of irradiated tumor area (S91 Cloudman melanoma; within minutes of the irradiation): evident signals of necroses

Compound: O=S(=O)(O)c1ccc(Cl)c(-c2c3nc(c(-c4cc(S(=O)(=O)O)ccc4Cl)c4ccc([nH]4)c(-c4cc(S(=O)(=O)O)ccc4Cl)c4nc(c(-c5cc(S(=O)(=O)O)ccc5Cl)c5ccc2[nH]5)CC4)CC3)c1 [Luzitin-Cl, 5,10,15,20-tetrakis(2-chloro-5-sulfonylphenyl)bacteriochlorin]
- sensitivity to light ([1]; 15 mg/kg subcutaneous, some animals): slight sensitivity
- sensitivity to light ([1]; 20 mg/kg subcutaneous): revealed sensitivity to the light
- body mass changes ([1]; 2-20 mg/kg subcutaneous, 30 days): no significant mass changes were observed
- blood morphology and histology of selected organs ([1]; 2-20 mg/kg subcutaneous, after 30 days): No changes were observed in the blood or in organs
- IC50 [2]: 400 µM
- IC50 (S91/I3 (mouse melanoma)): 500 µM
- accumulation in the skin [3]: negligible
- time to clearance from most of the organs [3]: 24 h
- concentration in tumor relative to muscle ([3]; one day after administration): 3 times

Compound: CNS(=O)(=O)c1ccc(F)c(-c2c3nc(c(-c4cc(S(=O)(=O)NC)ccc4F)c4ccc([nH]4)c(-c4cc(S(=O)(=O)NC)ccc4F)c4nc(c(-c5cc(S(=O)(=O)NC)ccc5F)c5ccc2[nH]5)CC4)CC3)c1 [Luzitin-FMet, 5,10,15,20-tetrakis(2-fluoro-5-N-methylsulfamoylphenyl)bacteriochlorin]
- depth of diffusion through stratum corneum and epidermis [4]: 50 microns
- time to diffuse through all the epidermis [4]: ≤ 3 h
- side effects of topical gel formulation ([4]; in vivo): None of the animals, and in particular the animal that remained alive, showed evidence for side effects
- tumor size after PDT vs non-irradiated controls [5]: smaller than the average size of the control animals and in one case the tumor completely disappeared
- highest concentration that causes relatively no effect in viability in the dark [6]: 50 µM
